Measured values reported in ChEMBL document CHEMBL1201862, “PubChem BioAssay data set” (2004).
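Five compound concentrations were applied to cells in 96-well plates for 48 hours; endpoints were derived by simple linear interpolation of the resulting dose-response curve. GI50 marks 50% less growth.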 Calls of active or inactive are those of the source. Rule as the data show it: active = GI50 up to about 1.1 µM and inactive = higher.

Legend:
Experiment in all cases: NCI-60 cell line screen, 48 h
[1] = tested on: A549
[2] = tested on: COLO 205
[3] = tested on: HOP-62
[4] = tested on: LOX IMVI
[5] = tested on: NCI-H460
[6] = tested on: SK-MEL-28
[7] = tested on: SN12C
[8] = tested on: SNB-19
[9] = tested on: UACC-257
[10] = tested on: UO-31
[11] = tested on: NCI-H226
[12] = tested on: SF-268
[13] = tested on: SR
[14] = tested on: U-251
[15] = tested on: A498
[16] = tested on: OVCAR-3

SMILES | GI50 [1] | GI50 [2] | GI50 [3] | GI50 [4] | GI50 [5] | GI50 [6] | GI50 [7] | GI50 [8] | GI50 [9] | GI50 [10] | GI50 [11] | GI50 [12] | GI50 [13] | GI50 [14] | GI50 [15] | GI50 [16]
COc1ccc2nc(-c3ccccn3)cc(O)c2c1 | 44 µM (inactive) | 28 µM (inactive) | > 100 µM (inactive) | 41.2 µM (inactive) | 34.7 µM (inactive) | 35.5 µM (inactive) | 47 µM (inactive) | > 100 µM (inactive) | 50.7 µM (inactive) | 18.4 µM (inactive) | – | – | – | – | – | –
N/N=c1\c2ccccc2c2cc3c(cc12)/c(=N/N)c1ccccc13 | > 100 µM (inactive) | > 100 µM (inactive) | > 100 µM (inactive) | – | > 100 µM (inactive) | > 100 µM (inactive) | > 100 µM (inactive) | > 100 µM (inactive) | > 100 µM (inactive) | > 100 µM (inactive) | > 100 µM (inactive) | > 100 µM (inactive) | 76.2 µM (inactive) | > 100 µM (inactive) | – | –
CC(C)C/C(CC(=O)CCC(=O)Nc1ccccc1[N+](=O)[O-])=N\NC(=O)c1cc2ccccc2cc1O | > 100 µM (inactive) | 28.6 µM (inactive) | 57.3 µM (inactive) | 27 µM (inactive) | 33.7 µM (inactive) | > 100 µM (inactive) | 50.6 µM (inactive) | 45.5 µM (inactive) | 37 µM (inactive) | 37 µM (inactive) | 19.3 µM (inactive) | 38 µM (inactive) | 30.2 µM (inactive) | 39.2 µM (inactive) | 0.0357 µM (active) | 26.7 µM (inactive)
S=c1cc(S)c2c(=S)sc3nc4ccccn4c(=S)c3c2s1 | > 100 µM (inactive) | – | – | 47.2 µM (inactive) | 21.3 µM (inactive) | > 100 µM (inactive) | 48.8 µM (inactive) | 52.5 µM (inactive) | – | 72.4 µM (inactive) | > 100 µM (inactive) | – | 25.9 µM (inactive) | 54.5 µM (inactive) | > 100 µM (inactive) | 28.2 µM (inactive)
C/C=C(\CCOS(=O)(=O)c1ccc(C)cc1)[Si](C)(C)C | > 100 µM (inactive) | > 100 µM (inactive) | – | > 100 µM (inactive) | > 100 µM (inactive) | > 100 µM (inactive) | > 100 µM (inactive) | > 100 µM (inactive) | > 100 µM (inactive) | > 100 µM (inactive) | – | > 100 µM (inactive) | > 100 µM (inactive) | > 100 µM (inactive) | > 100 µM (inactive) | > 100 µM (inactive)
O=c1c2ccccc2nc(-c2ccccc2)n1NC(=S)Nc1ccc(Cl)cc1 | 59.7 µM (inactive) | > 100 µM (inactive) | > 100 µM (inactive) | > 100 µM (inactive) | 59.4 µM (inactive) | 24.1 µM (inactive) | > 100 µM (inactive) | – | 75.9 µM (inactive) | 61.5 µM (inactive) | 96.6 µM (inactive) | > 100 µM (inactive) | 65.9 µM (inactive) | > 100 µM (inactive) | > 100 µM (inactive) | –
CCOC(=O)C1C(c2ccc([N+](=O)[O-])cc2)NC(c2ccc([N+](=O)[O-])cc2)C(C(=O)OC)S1(=O)=O (configuration not stated) | > 100 µM (inactive) | > 100 µM (inactive) | > 100 µM (inactive) | > 100 µM (inactive) | > 100 µM (inactive) | > 100 µM (inactive) | > 100 µM (inactive) | > 100 µM (inactive) | > 100 µM (inactive) | > 100 µM (inactive) | > 100 µM (inactive) | > 100 µM (inactive) | > 100 µM (inactive) | > 100 µM (inactive) | – | > 100 µM (inactive)
COc1ccc(C2CC(c3cc(C)ccc3O)=NC(N)=N2)cc1 (configuration not stated) | > 100 µM (inactive) | > 100 µM (inactive) | > 100 µM (inactive) | > 100 µM (inactive) | > 100 µM (inactive) | > 100 µM (inactive) | > 100 µM (inactive) | > 100 µM (inactive) | > 100 µM (inactive) | > 100 µM (inactive) | > 100 µM (inactive) | > 100 µM (inactive) | > 100 µM (inactive) | > 100 µM (inactive) | > 100 µM (inactive) | > 100 µM (inactive)
O=C(CSc1nnc(-c2ccc(/N=C\c3ccc(Cl)cc3)cc2)o1)Nc1ccc(Cl)cc1 | > 100 µM (inactive) | > 100 µM (inactive) | > 100 µM (inactive) | > 100 µM (inactive) | > 100 µM (inactive) | > 100 µM (inactive) | > 100 µM (inactive) | > 100 µM (inactive) | > 100 µM (inactive) | > 100 µM (inactive) | > 100 µM (inactive) | > 100 µM (inactive) | > 100 µM (inactive) | > 100 µM (inactive) | – | –
N#C/C(=C/c1cccnc1)C(=O)c1ccccc1 | > 100 µM (inactive) | > 100 µM (inactive) | > 100 µM (inactive) | > 100 µM (inactive) | > 100 µM (inactive) | > 100 µM (inactive) | > 100 µM (inactive) | > 100 µM (inactive) | > 100 µM (inactive) | > 100 µM (inactive) | > 100 µM (inactive) | > 100 µM (inactive) | > 100 µM (inactive) | > 100 µM (inactive) | – | > 100 µM (inactive)
CCOC12SC(Nc3ccc(C)cc3)=NN1C(=S)N(C)N=C2C (configuration not stated) | > 100 µM (inactive) | > 100 µM (inactive) | > 100 µM (inactive) | > 100 µM (inactive) | > 100 µM (inactive) | > 100 µM (inactive) | > 100 µM (inactive) | > 100 µM (inactive) | > 100 µM (inactive) | – | > 100 µM (inactive) | > 100 µM (inactive) | > 100 µM (inactive) | > 100 µM (inactive) | > 100 µM (inactive) | –
Cc1ccc([S+]([O-])C(C)C(Cl)c2ccccc2)cc1 (configuration not stated) | – | 30.7 µM (inactive) | > 100 µM (inactive) | > 100 µM (inactive) | > 100 µM (inactive) | > 100 µM (inactive) | > 100 µM (inactive) | – | 34.7 µM (inactive) | > 100 µM (inactive) | > 100 µM (inactive) | > 100 µM (inactive) | 99.3 µM (inactive) | 35.6 µM (inactive) | > 100 µM (inactive) | 53.7 µM (inactive)
N#Cc1c2ccccc2cn1-c1ccc(F)cc1 | 24.6 µM (inactive) | 26.2 µM (inactive) | 23 µM (inactive) | – | 29.7 µM (inactive) | 47.8 µM (inactive) | – | 22.4 µM (inactive) | 26.9 µM (inactive) | 8.59 µM (inactive) | 9.27 µM (inactive) | 24.5 µM (inactive) | > 10 µM (inactive) | 39.1 µM (inactive) | – | 19.8 µM (inactive)
CSc1nc(SC)c2c(C(N)=S)n[nH]c2n1 | 23 µM (inactive) | 18.2 µM (inactive) | 23.2 µM (inactive) | 24.1 µM (inactive) | 23.6 µM (inactive) | 31.7 µM (inactive) | 36.3 µM (inactive) | 27.1 µM (inactive) | 21.8 µM (inactive) | 19 µM (inactive) | 19.9 µM (inactive) | 31.2 µM (inactive) | 30.7 µM (inactive) | 23 µM (inactive) | 24.5 µM (inactive) | 22.1 µM (inactive)
CCOC(=O)/C(=C\c1ccc(N(CCC#N)CCC#N)cc1)NC(=O)c1cc([N+](=O)[O-])ccc1Cl | > 100 µM (inactive) | > 100 µM (inactive) | > 100 µM (inactive) | 69 µM (inactive) | > 100 µM (inactive) | > 100 µM (inactive) | > 100 µM (inactive) | > 100 µM (inactive) | > 100 µM (inactive) | 69 µM (inactive) | > 100 µM (inactive) | > 100 µM (inactive) | – | > 100 µM (inactive) | > 100 µM (inactive) | 63.4 µM (inactive)
Cc1cc2c(c3nocc13)C(=O)c1ccccc1C2=O | > 100 µM (inactive) | > 100 µM (inactive) | > 100 µM (inactive) | > 100 µM (inactive) | > 100 µM (inactive) | > 100 µM (inactive) | > 100 µM (inactive) | > 100 µM (inactive) | > 100 µM (inactive) | > 100 µM (inactive) | – | > 100 µM (inactive) | – | > 100 µM (inactive) | – | > 100 µM (inactive)
N#CC12CCC1C1CCCCC12N1CCSCC1 (configuration not stated) | > 100 µM (inactive) | > 100 µM (inactive) | > 100 µM (inactive) | – | > 100 µM (inactive) | > 100 µM (inactive) | > 100 µM (inactive) | > 100 µM (inactive) | > 10 µM (inactive) | > 100 µM (inactive) | – | – | 60.5 µM (inactive) | > 100 µM (inactive) | > 100 µM (inactive) | > 100 µM (inactive)
COc1cc(/C=C/c2ccc(OC)c(OC)c2OC)cc(OC)c1OC | 27.2 µM (inactive) | 17.3 µM (inactive) | 15.6 µM (inactive) | 16.1 µM (inactive) | 20.3 µM (inactive) | 15.3 µM (inactive) | 21.4 µM (inactive) | 21.3 µM (inactive) | 20.9 µM (inactive) | 14.1 µM (inactive) | 17.6 µM (inactive) | 20.1 µM (inactive) | 12.2 µM (inactive) | 16.8 µM (inactive) | 22 µM (inactive) | 16 µM (inactive)
[N-]=[N+]=NC1C(Br)C(=O)NC(=O)N1[C@H]1C[C@H](O)[C@@H](CO)O1 (some centres not stated) | > 100 µM (inactive) | > 100 µM (inactive) | > 100 µM (inactive) | > 100 µM (inactive) | > 100 µM (inactive) | > 100 µM (inactive) | > 100 µM (inactive) | > 100 µM (inactive) | > 100 µM (inactive) | > 100 µM (inactive) | – | > 100 µM (inactive) | – | > 100 µM (inactive) | > 100 µM (inactive) | > 100 µM (inactive)
